Assay results published in patent US20110165173A1, “THERAPEUTIC AGENT AND DETECTION REAGENT FOR ARTERIOSCLEROTIC DISEASE WHICH TARGETS FOR SALUSIN” (PROTEINEXPRESS CO., LTD., priority 2007, published 2011).

Test system: human monocyte-derived macrophages
Test: Cholesterol esterification assay: foaming of human monocyte-derived macrophages caused by AcLDL
Type: cell-based
Conditions: 0.6 nM; 5 μg/mL AcLDL added on Day 7
Method: Cholesterol esterification assay was employed as a method for assaying foaming of macrophages [Goldstein J L et al., Methods Enzymol. 1983; 98: 241-260]. Macrophages cause acetylated LDL (AcLDL) to be incorporated into cells via scavenger receptors so as to result in lysosome degradation. Free cholesterol produced in a lysosome is transferred to ACAT and converted into cholesterol ester as a result of ACAT reaction. If [^3H]oleate is added to a medium, [^3H]oleate is incorporated into cells and converted into [^3H]oleoyl-CoA by acyl CoA synthase. ACAT produces cholesterol [^3H]oleate with the use of as substrates, AcLDL-derived free cholesterol and [^3H]oleoyl-CoA obtained as above. The radioactivity of cholesterol [^3H]oleate accumulated in cells can serve as a sensitive indicator for cholesterol ester accumulation (FIG. 7).
LDL (d=1.019-1.063) was purified from human blood plasma by sequential flotation ultracentrifugation [Schumaker VN et al., Methds Enzymol. 1986; 128: 155-170]. […] The volume of the obtained blood plasma fraction from which chylomicron and VLDL had been removed was measured with a volumetric flask. […]
Equivalent volumes of LDL (protein: 30 mg) (15 mL if 2.0 mg protein/mL) and saturated sodium acetate were mixed together. […] At this time, pH was monitored with a pH meter with the dropwise addition of 5 N NaOH thereto such that the pH could be maintained at more than 6.5. […]

| Substance | accumulation of cholesterol [3H]oleate caused by AcLDL, percent of loaded control cells [%] | accumulation of cholesterol [3H]oleate caused by AcLDL relative to control cells [times] |
| --- | --- | --- |
| salusin-α: peptide (SEQ ID NO: 1) comprising 28 amino acid residues, generated by processing from preprosalusin (SGALPPAPAAPRPALRAQRAGPAGPGAK; listed as Homo sapiens) | 50 |  |
| salusin-β: peptide (SEQ ID NO: 3) comprising 20 amino acid residues, generated by processing from preprosalusin (AIFIFIRWLLKLGHHGRAPP; listed as Homo sapiens) [reference compound] |  | 1.6 |
